Target: T1, ribonuclease A (RNase A) (Bos taurus, UniProt P61823)
T1 sequence (P61823 27-150): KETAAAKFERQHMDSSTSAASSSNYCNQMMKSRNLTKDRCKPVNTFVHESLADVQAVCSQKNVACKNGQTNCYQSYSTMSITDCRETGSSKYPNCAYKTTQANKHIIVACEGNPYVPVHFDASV
Assay: RNase A labeling (esterification of carboxyl groups), extent by MALDI, labelled residues by trypsin digestion and mass spectrometry
Assay type: biochemical
Conditions: for extent of labeling of RNase A (average number of the eleven carboxylates esterified): 10 equivalents of diazo compound; for RNase A residues labelled (chemoselectivity): trypsin digestion coupled with mass spectrometry
Experimental: To address biocompatibility of diazo-compounds for esterification more directly, the relative esterification efficiency of these diazo compounds was compared with the eleven carboxyl groups present in ribonuclease A (RNase A).[24]
Only after the addition of 200 equivalents was any esterification with diazo-acetamide 1 observed which correlates with its lack of selectivity under aqueous conditions (Scheme 2).
Using trypsin digestion coupled with mass spectrometry, it was determined which residues were labelled and the results fit well with the observed chemoselectivity of each diazo compound. […] This provides further evidence that properly tuned diazo compounds can not only attain high levels of labelling, but can also selectively label specific residues.
Ribonuclease A (0.001 g, 0.073 μmol) was dissolved in MES buffer (10 mM, pH=5.5, 0.1 mL) and diazobenzylacetamide (0.0026 g, 14.6 μmol) was dissolved in acetonitrile (0.1 mL). The two solutions were combined and the reaction was allowed to stir 4 hours at 37° C.
Ribonuclease A (0.001 g, 0.073 μmol) was dissolved in MES buffer (10 mM, pH=5.5, 0.1 mL) and a stock solution of diazofluorene in acetonitrile was made (Stock solution: 0.001 g, 7.30 μmol, 1 mL CH3CN). The stock solution of diazo compound (0.1 mL, 0.730 μmol) was added to the ribonuclease solution and the reaction was allowed to stir 4 hours at 37° C. Any remaining diazo compound was then quenched by adding 0.1 M acetic acid (0.1 mL) and the reaction was concentrated and the extent of labeling was determined by MALDI spectroscopy to be ˜3 labels per RNase A.

[1] = 4 hours at 37° C., MES buffer pH 5.5/acetonitrile

## [N-]=[N+]=C(Cc1ccccc1)C(N)=O [compound 1, Diazobenzylacetamide]
[1]
  extent of labeling of RNase A (average number of the eleven carboxylates esterified): incapable of labelling
4 hours at 37° C., MES buffer pH 5.5/acetonitrile, listed as diazobenzylacetamide
  extent of labeling of RNase A (average number of the eleven carboxylates esterified): no labeling was observed
200 equiv.
  RNase A residues labelled (chemoselectivity): comparably labelling residues Glu9, Asp14, Glu49, Glu111, and the C-terminal Val124
200 equivalents of diazo compound, 4 hours at 37° C., MES buffer pH 5.5/acetonitrile
  extent of labeling of RNase A: < 1 label per RNase A

## [N-]=[N+]=C1c2ccccc2-c2ccccc21 [compound 2, Diazofluorene]
10 equiv.
  RNase A residues labelled (chemoselectivity): almost exclusively labelling Asp14, Glu49, Glu111, and Asp121
[1]
  extent of labeling of RNase A (average number of the eleven carboxylates esterified): ~3 labels per RNase A

Reference: patent US11091423B2, “Reagents and methods for esterification” (Wisconsin Alumni Research Foundation, priority 2013, dated 2021)
